The target in one test is T1, JAK2 (Homo sapiens, UniProt O60674).
T1 construct: endogenous in cells; host or cells: Molt4 (ATCC CRL-1582) and Ramos (ATCC CRL-1596), mixed lysate 1:2
The test can be described thus: Kinobeads assay, JAK2 (competition binding in mixed Molt4/Ramos cell lysate, dot blot detection). The note with it: read-out: JAK2 Band (Kinobeads assay potency, IC50). Summed up: (§1)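 Competition binding: compound dilutions (1:3 series, 9 steps) plus immobilized aminopyrido-pyrimidine beads incubated 3 h in the cold with mixed Molt4/Ramos lysate (1:2) at 10 mg/mL protein. Bead-bound JAK2/TYK2 eluted and quantified by antibody dot blot with infrared detection; IC50 from dose-response curves.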

A further test addresses T2, TYK2 (Homo sapiens, UniProt P29597).
T2 construct: endogenous in cells; host or cells: Molt4 (ATCC CRL-1582) and Ramos (ATCC CRL-1596), mixed lysate 1:2
The test is described as follows: Kinobeads assay, TYK2 (competition binding in mixed Molt4/Ramos cell lysate, dot blot detection). The note with it: Kinobeads assay, Molt4/Ramos lysate; read-out: TYK2 Band (Kinobeads assay potency, IC50). Summed up: as §1

Each structure is given as a SMILES string. Where only a bound is given, the exact number is not on record here.

T2 sequence (P29597 whole entry): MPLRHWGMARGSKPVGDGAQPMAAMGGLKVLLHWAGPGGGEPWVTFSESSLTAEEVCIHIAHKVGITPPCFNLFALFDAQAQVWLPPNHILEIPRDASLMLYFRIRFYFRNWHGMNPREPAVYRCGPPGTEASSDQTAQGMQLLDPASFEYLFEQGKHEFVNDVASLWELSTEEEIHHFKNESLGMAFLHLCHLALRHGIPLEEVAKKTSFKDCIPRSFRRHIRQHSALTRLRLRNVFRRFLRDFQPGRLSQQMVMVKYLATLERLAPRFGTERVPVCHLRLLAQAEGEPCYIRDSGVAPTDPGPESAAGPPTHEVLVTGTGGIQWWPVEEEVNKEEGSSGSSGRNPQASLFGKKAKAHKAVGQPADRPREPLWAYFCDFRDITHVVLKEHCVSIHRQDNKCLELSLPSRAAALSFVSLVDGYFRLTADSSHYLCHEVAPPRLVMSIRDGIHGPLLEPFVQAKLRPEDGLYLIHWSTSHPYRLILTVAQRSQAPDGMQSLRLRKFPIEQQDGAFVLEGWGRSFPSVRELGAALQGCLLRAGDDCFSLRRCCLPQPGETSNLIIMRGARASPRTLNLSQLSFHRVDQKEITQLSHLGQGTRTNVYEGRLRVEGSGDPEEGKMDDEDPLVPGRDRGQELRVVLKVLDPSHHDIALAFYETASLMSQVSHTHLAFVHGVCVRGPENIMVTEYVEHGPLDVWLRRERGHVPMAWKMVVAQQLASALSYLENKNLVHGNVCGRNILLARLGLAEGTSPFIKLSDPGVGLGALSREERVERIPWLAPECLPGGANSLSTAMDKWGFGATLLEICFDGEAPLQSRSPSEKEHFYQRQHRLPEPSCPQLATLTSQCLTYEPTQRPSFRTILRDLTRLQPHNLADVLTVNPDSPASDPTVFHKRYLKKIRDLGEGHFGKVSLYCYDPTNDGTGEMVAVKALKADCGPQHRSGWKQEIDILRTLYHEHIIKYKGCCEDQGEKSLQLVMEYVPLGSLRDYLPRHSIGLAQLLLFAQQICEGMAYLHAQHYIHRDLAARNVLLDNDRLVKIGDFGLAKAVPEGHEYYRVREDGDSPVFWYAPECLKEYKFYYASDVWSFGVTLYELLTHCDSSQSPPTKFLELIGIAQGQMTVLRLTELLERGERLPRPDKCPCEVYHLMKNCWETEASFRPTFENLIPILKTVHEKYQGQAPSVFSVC
T1 sequence (O60674 whole entry): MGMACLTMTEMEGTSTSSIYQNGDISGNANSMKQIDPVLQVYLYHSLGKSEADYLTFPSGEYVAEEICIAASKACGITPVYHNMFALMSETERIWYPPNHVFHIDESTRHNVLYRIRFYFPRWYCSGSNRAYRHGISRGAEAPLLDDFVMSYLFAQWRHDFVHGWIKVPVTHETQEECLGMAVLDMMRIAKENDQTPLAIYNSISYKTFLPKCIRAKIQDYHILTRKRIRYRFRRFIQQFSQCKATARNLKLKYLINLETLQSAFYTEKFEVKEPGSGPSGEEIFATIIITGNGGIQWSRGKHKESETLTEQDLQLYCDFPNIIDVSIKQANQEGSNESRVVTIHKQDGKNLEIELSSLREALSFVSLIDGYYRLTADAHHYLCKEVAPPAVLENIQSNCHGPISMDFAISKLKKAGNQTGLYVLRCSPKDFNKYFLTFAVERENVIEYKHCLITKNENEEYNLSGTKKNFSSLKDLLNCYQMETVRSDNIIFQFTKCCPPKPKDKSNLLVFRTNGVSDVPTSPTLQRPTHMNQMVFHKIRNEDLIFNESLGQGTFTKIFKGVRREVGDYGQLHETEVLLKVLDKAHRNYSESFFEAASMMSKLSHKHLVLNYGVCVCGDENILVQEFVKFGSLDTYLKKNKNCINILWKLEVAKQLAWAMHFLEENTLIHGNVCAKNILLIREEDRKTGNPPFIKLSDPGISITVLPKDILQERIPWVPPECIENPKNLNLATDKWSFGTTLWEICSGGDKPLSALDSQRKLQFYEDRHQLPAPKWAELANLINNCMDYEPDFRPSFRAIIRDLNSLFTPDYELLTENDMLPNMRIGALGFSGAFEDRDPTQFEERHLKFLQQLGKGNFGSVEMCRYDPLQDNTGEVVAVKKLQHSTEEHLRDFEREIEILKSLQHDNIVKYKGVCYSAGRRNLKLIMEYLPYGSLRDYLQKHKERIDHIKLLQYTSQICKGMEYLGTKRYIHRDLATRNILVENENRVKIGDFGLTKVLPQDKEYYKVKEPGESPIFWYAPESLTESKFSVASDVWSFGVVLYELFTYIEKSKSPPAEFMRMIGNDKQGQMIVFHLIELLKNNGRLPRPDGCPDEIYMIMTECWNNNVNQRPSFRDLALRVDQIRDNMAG

As a reminder, the IC50 is the concentration that gives 50% inhibition. `CN(C)CCNC(=O)Cn1cc(Nc2ncc(Cl)c(NCc3cccc(OCC#N)c3)n2)cn1` [Example I-367]: the IC50 at JAK2 lay within 1000 to 10000 nM; at TYK2 it was 100 to 1000 nM.

With `CCOc1ccc(F)c(CNc2nc(Nc3cn[nH]c3)ncc2Cl)c1F` [Example I-368], the IC50 on JAK2 lay in the range of 1000 to 10000 nM; on TYK2 it was 10 to 100 nM.

As to `Fc1ccccc1CNc1nc(Nc2cn[nH]c2)ncc1Cl` [Example I-369], the IC50 at JAK2 and on TYK2 was 100 to 1000 nM throughout.

For the compound `Fc1cccc(CNc2nc(Nc3cn[nH]c3)ncc2Cl)c1` [Example I-370], the IC50 on JAK2 and on TYK2 was 100 to 1000 nM each time.

With `Cc1ccc(F)c(CNc2nc(Nc3cn[nH]c3)ncc2Cl)c1F` [Example I-371], the IC50 on JAK2 was 1000 to 10000 nM; on TYK2 it was 10 to 100 nM.

`Fc1cc(F)c(CNc2nc(Nc3cn[nH]c3)ncc2Cl)c(F)c1` [Example I-372]: the figures for the IC50 on JAK2 and on TYK2 were 1000 to 10000 nM and 10 to 100 nM, respectively.

`OCCn1cc(Nc2ncc(Cl)c(NCc3c(F)ccc(F)c3F)n2)cn1` [Example I-373]: the figures for the IC50 at JAK2 and on TYK2 were 10 to 100 nM and ≤ 10 nM, respectively.

In the case of `Cn1cc(Nc2ncc(F)c(NCc3c(F)cc(F)cc3F)n2)cn1` [Example I-374], the IC50 is 1000 to 10000 nM at JAK2 and 10 to 100 nM at TYK2.

As for `COc1ccc(F)c(CNc2nc(Nc3cnn(CC(N)=O)c3)ncc2Cl)c1F` [Example I-375], the IC50 on JAK2 lay in the range of 100 to 1000 nM; at TYK2, 10 to 100 nM.

Regarding `COc1ccc(F)c(CNc2nc(Nc3cnn(CC(=O)N(C)C)c3)ncc2Cl)c1F` [Example I-376], the IC50 on JAK2 fell in the range of 100 to 1000 nM; on TYK2, 10 to 100 nM.

For `COc1ccc(F)c(CNc2nc(Nc3cnn(CC(=O)N4CCOCC4)c3)ncc2Cl)c1F` [Example I-377], the IC50 at JAK2 is 100 to 1000 nM; at TYK2 it was 10 to 100 nM.

`Cc1cnc(Nc2cnn(CC(=O)N3CCOCC3)c2)nc1NCc1c(F)cc(S(N)(=O)=O)cc1F` [Example I-378]: the IC50 on JAK2 was 100 to 1000 nM; on TYK2 it was ≤ 10 nM.

`Cn1cc(Nc2ncc(F)c(NCc3c(F)cc(S(N)(=O)=O)cc3F)n2)cn1` [Example I-379]: the IC50 on JAK2 was 1000 to 10000 nM; on TYK2, 10 to 100 nM.

Regarding `NC(=O)Cn1cc(Nc2ncc(F)c(NCc3c(F)cccc3F)n2)cn1` [Example I-380], the IC50 lay within 1000 to 10000 nM on JAK2 and 10 to 100 nM on TYK2.

For the compound `CNC(=O)Cn1cc(Nc2ncc(F)c(NCc3c(F)cccc3F)n2)cn1` [Example I-381], the IC50 on JAK2 lay within 1000 to 10000 nM; on TYK2, 10 to 100 nM.

As to `CN(C)C(=O)Cn1cc(Nc2ncc(F)c(NCc3c(F)cccc3F)n2)cn1` [Example I-382], the 50% inhibitory concentration (IC50) on JAK2 was 1000 to 10000 nM; on TYK2, 10 to 100 nM.

Regarding `COc1ccc(F)c(CNc2nc(Nc3cnn(C)c3)ncc2F)c1F` [Example I-383], the IC50 is 1000 to 10000 nM on JAK2 and 10 to 100 nM at TYK2.

For `COc1ccc(F)c(CNc2nc(Nc3cnn(CC(N)=O)c3)ncc2F)c1F` [Example I-384], the IC50 on JAK2 lay within 1000 to 10000 nM; on TYK2, 10 to 100 nM.

For the compound `Cn1cc(Nc2ncc(Cl)c(NCc3c(F)cc(F)cc3F)n2)cn1` [Example I-385], the values for the IC50 at JAK2 and at TYK2 were 1000 to 10000 nM and 10 to 100 nM, respectively.

With `NC(=O)Cn1cc(Nc2ncc(Cl)c(NCc3c(F)cc(F)cc3F)n2)cn1` [Example I-387], the IC50 was 1000 to 10000 nM at JAK2 and 10 to 100 nM at TYK2.

Regarding `CNC(=O)Cn1cc(Nc2ncc(Cl)c(NCc3c(F)cc(F)cc3F)n2)cn1` [Example I-388], the IC50 at JAK2 is 1000 to 10000 nM; on TYK2, 10 to 100 nM.

Turning to `CN(C)C(=O)Cn1cc(Nc2ncc(Cl)c(NCc3cccc(C(N)=O)c3)n2)cn1` [Example I-390], the results for the IC50 on JAK2 and on TYK2 were 1000 to 10000 nM and 100 to 1000 nM, respectively.

Turning to `CC(C)NC(=O)Cn1cc(Nc2ncc(Cl)c(NCc3cccc(OC(F)F)c3)n2)cn1` [Example I-391], the results for the IC50 at JAK2 and on TYK2 were 1000 to 10000 nM and 10 to 100 nM, respectively.

In the case of `CC(C)CNC(=O)Cn1cc(Nc2ncc(Cl)c(NCc3cccc(OC(F)F)c3)n2)cn1` [Example I-392], the values for the IC50 on JAK2 and on TYK2 were 1000 to 10000 nM and 10 to 100 nM, respectively.

The values above are taken from US9296725B2, “Heterocyclyl pyrimidine analogues as TYK2 inhibitors” (Cellzome Limited, priority 2012, dated 2016).
